According to patent US20070031511A1, “Method of treatment” (priority 2003, published 2007):
Entries after “also recorded” stand apart in the source; their conditions may differ. Like-named read-outs stand apart in the source and are kept apart here.

Key:
IMGE-5 cells [1] = test: IMGE-5 cell proliferation, MTT assay; format: cell-based, mice; conditions: for Mean Response ± SEM (% Control), proliferation of IMGE cells: treatment alone: 10 nM Ggly, 32 mol/mol Bi without Ggly, fetal calf serum positive control
[2] = Quenching of peptide tryptophan fluorescence by ferric ions (stoichiometry, apparent Kd); format: binding; conditions: mean ± S.E.
Method in brief: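 Ferric ions titrated into peptide in 10 mM sodium acetate pH 4.0, 100 mM NaCl, 0.005% Tween 20; Trp fluorescence quenching read at ex 290/em 345 nm. Stoichiometry and apparent Kd from linear regression of Cs/fa = pCa + Kd/(1−fa); means ±S.E. of independent experiments.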

IMGE-5 cells [3] = test: Wound healing / cell migration assay; format: cell-based, mice; conditions: for Stimulation of IMGE-5 cell migration: wound healing assay, fragments and mutants shown at 1 nM (FIGS. 7B, 8B)
Method in brief: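 Murine gastric IMGE-5 cells at 80% confluence were shifted to 39 °C (non-permissive), serum-starved 24 h, then scratch-wounded. They were treated with or without compound in serum-free DMEM. Wound width was measured at six positions after 24 h and averaged.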

HT29 cells = test: HT29 cell proliferation, MTT assay; format: cell-based, human

| Kd ([2]; pH 4.0, read-out: Kd (μM) of ferric ion binding (amidated gastrin17 and related peptides)) | Kd ([2]; pH 4.0, model with two identical independent binding sites, read-out: Ferric Kd) | Kd ([2]; 10 mM sodium acetate pH 4.0, 100 mM NaCl, 0.005% Tween 20, read-out: Kd (μM), apparent dissociation constant for ferric ions) | Compound | Increase in proliferation of IMGE-5 (IMGE-5 cells [1]) | Stimulation of IMGE-5 cell migration (IMGE-5 cells [3]) | HT29 cell proliferation compared to the control (HT29 cells; 10 nM Ggly, MTT) | Mean Response ± SEM (% Control), proliferation of IMGE cells (IMGE-5 cells [1]) | Effect on proliferation induced by Ggly (HT29 cells; 2, 8 or 32 moles/mole, 10 nM Ggly, HT29) | Effect of bismuth ions alone on proliferation (HT29 cells; HT29, highest concentrations tested) | Effect on Ggly-induced migration of IMGE-5 cells (IMGE-5 cells [3]; 2, 8 or 32 moles/mole Ggly, 10 nM Ggly, 17 or 24 hours) | Effect of bismuth ions alone on migration (IMGE-5 cells [3]; maximum concentration tested, without Ggly) |
| --- | --- | --- | --- | --- | --- | --- | --- | --- | --- | --- | --- |
| 0.2 ± 0.14 µM | 0.2 ± 0.1 µM |  | CSCC[C@H](NC(=O)[C@H](Cc1c[nH]c2ccccc12)NC(=O)CNC(=O)[C@H](Cc1ccc(O)cc1)NC(=O)[C@H](C)NC(=O)[C@H](CCC(=O)O)NC(=O)[C@H](CCC(=O)O)NC(=O)[C@H](CCC(=O)O)NC(=O)[C@H](CCC(=O)O)NC(=O)[C@H](CCC(=O)O)NC(=O)[C@H](CC(C)C)NC(=O)[C@H](Cc1c[nH]c2ccccc12)NC(=O)[C@@H]1CCCN1C(=O)CNC(=O)[C@@H]1CCC(=O)N1)C(=O)N[C@@H](CC(=O)O)C(=O)N[C@@H](Cc1ccccc1)C(N)=O [Gamide] | 2 fold | did not stimulate IMGE-5 cell migration; also recorded: inactive |  |  |  |  |  |  |
|  |  | 0.18 ± 0.04 µM | Ggly: glycine-extended gastrin17, 18 amino acid non-amidated gastrin, SEQ ID NO:4, residues 55-72 of progastrin (XGPWLEEEEEAYGWMDFG; (1)..(1) pyroglutamate; listed as Homo sapiens) | 2 fold | considerably reduced wound size | 120% | 135.7 ± 3.6 % Control |  |  |  |  |
|  |  |  | [Bi+3] [bismuth ions] |  |  |  | 97.9 ± 2.5 % Control | significantly decreased the proliferation induced by Ggly | no effect | completely blocked | no effect |
